Test results: patent US20220087987A1, “A METHOD FOR TREATING SWI/SNF COMPLEX-DEFICIENT CANCERS COMPRISING GLUTATHIONE (GSH) METABOLIC PATHWAY INHIBITOR” (National Cancer Center, priority 2018, published 2022)
Where two headings read alike, the source gives them in different places.

Key:
ARID1A-WT HCT116 cells = assay: Drug library screen, cell viability (CellTiter-Glo); format: cell-based, human; design: key to Cell viability, WT: % viability relative to DMSO solvent-treated cells
Procedure: (§1) ARID1A-WT and ARID1A-KO HCT116 cancer cells were used for screening assays. […] Cell viability was assessed after 5 days using the CellTiter-Glo Luminescent Cell Viability Assay (Promega). Luminescence was measured using an Envision Multi-label plate reader (PerkinElmer). The luminescence reading was used to determine the cell viability relative to that of cells treated with solvent (DMSO). Candidate compounds were considered if viability of ARID1A-KO cells was less than […] was more than 80%.

ARID1A-KO HCT116 cells = assay: as above; format: cell-based, human; design: key to Cell viability, KO: % viability relative to DMSO solvent-treated cells
Procedure: as §1

[1] = HCT116 ARID1A-WT, 10 μM for 5 days, relative to cells treated with solvent (DMSO)
[2] = HCT116 ARID1A-KO, 10 μM for 5 days, relative to cells treated with solvent (DMSO)

Compound | Cell viability, WT (ARID1A-WT HCT116 cells; [1]) | Cell viability, KO (ARID1A-KO HCT116 cells; [2]) | Cell viability, WT (ARID1A-WT HCT116 cells) | Cell viability, KO (ARID1A-KO HCT116 cells)
O=c1[nH]c2ccccc2n1C1CCN(Cc2ccc(-c3nc4cc5[nH]cnc5cc4nc3-c3ccccc3)cc2)CC1 | 84.5 | 124.843 |  | 
COc1cc2c(cc1OC)-c1[nH]nc(Nc3cccc(F)c3)c1C2 | 5.928 | 12.89 |  | 
COc1cc2nccc(Oc3ccc(NC(=S)NC(=O)c4ccccc4C)cc3)c2cc1OC | 99 | 107.0846 |  | 
O=C1Cc2c([nH]c3ccc(Br)cc23)-c2ncccc2N1 [1-Azakenpaullone] | 95.89 | 114.0704 |  | 
C1=Cc2nc1cc1ccc([nH]1)c(-c1ccccc1)c1nc(cc3ccc([nH]3)c2-c2ccccc2)C=C1 [5,15-DPP] | 90.1195 | 98.73 |  | 
O=c1[nH]cc(F)c(=O)[nH]1 [5-FU] | 32.167 | 24.07 |  | 
C=CCNC1=C2C[C@@H](C)C[C@H](OC)[C@H](O)[C@@H](C)/C=C(\C)[C@H](OC(N)=O)[C@@H](OC)/C=C\C=C(/C)C(=O)NC(=CC1=O)C2=O [17-AAG] | 8.063 | 8.214 |  | 
Cc1cccc(-c2nn(C(=S)Nc3ccccc3)cc2-c2ccnc3ccccc23)n1 [A83-01] | 77.92 | 104.8454 |  | 
Nc1ncnc2nc(-c3ccc(N4CCOCC4)nc3)cc(-c3cccc(Br)c3)c12 [ABT-702] | 94.11 | 111.7532 |  | 
N#C/C(=C/c1ccc(O)c(O)c1)C(=O)NCc1ccccc1 [AG490] | 152.9882 | 114.4173 |  | 
COc1cc(/C=C(\C#N)C(N)=O)cc(CSc2nc3ccccc3s2)c1O [AG825] | 85.83 | 80.86 |  | 
COC(=O)c1ccc(NCc2cc(O)ccc2O)cc1 [AG957] | 23.69 | 17.53 |  | 
CC(C)(C)c1cc(C=C(C#N)C#N)cc(Br)c1O [AG1024] | 161.1636 | 183.5477 |  | 
COc1cc2ncc(-c3ccccc3)nc2cc1OC [AG1296] | 190.9406 | 144.7899 |  | 
COc1cc2ncnc(Nc3cccc(Cl)c3)c2cc1OC [AG1478] | 149.2606 | 129.9442 |  | 
N#C/C(=C\c1ccc2oc(=O)[nH]c2c1)C(=O)c1ccc(O)c(O)c1 [AGL 2263] | 148.6873 | 172.9001 |  | 
Cl.Cl.Cl.Cl.Cl.Cl.Cl.Cl.c1cc(CN2CCCNCCNCCCNCC2)ccc1CN1CCCNCCNCCCNCC1 [AMD3100 octahydrochloride] |  |  | 102.6908 | 102.0251
O=C(Nc1ccc2c(O)cc(S(=O)(=O)O)cc2c1)Nc1ccc2c(O)cc(S(=O)(=O)O)cc2c1 [AMI-1] |  | 85.52 |  | 
CC1CCN=C(N)S1.Cl (centres unmarked) [AMT, HCl] | 171.2223 | 139.818 |  | 
O=c1cc(-c2cccc3c2Sc2ccccc2S3)oc(N2CCOCC2)c1 [ATM kinase inhibitor] | 70.42 | 83.21 |  | 
COC(=O)[C@H](CC(C)C)NC(=O)c1ccc(NC[C@@H](N)CS)cc1-c1ccccc1 [GGTI-286] |  | 123.5827 |  | 
COc1ccc(C[C@H]2NC[C@H](O)[C@H]2OC(C)=O)cc1 [anisomycin] |  | 7.327 |  | 
